From paper PMC9014412 (Journal of medicinal chemistry, 2022)

What was measured:
SIN3A = SIN3A protein levels by western blotting; type: cell-based, human; conditions: HCT116 cells
Method: (§1) Supporting Information: Biology
(§2) Representative blots of two independent biological replicates.
Figure S6. Representative Western blot of HDAC1/2/3 levels after 24 hours and 48 hours with 1
(JPS004), 7 (JPS014) and 9 (JPS016), and bar graph representation of HDAC1-3, LSD1 and Sin3a
protein levels after 24 hours and 48 hours as the average of three independent biological replicates.
(also on this page, place not known: HDAC1 24hHDAC2 24hHDAC3 24hHDAC1 48hHDAC2 48hHDAC3 %Protein Levels Remaining (Relative to DMSO) %Protein Levels Remaining (Relative to DMSO))

HCT116 cells [1] = assay: CellTiter-Glo 2.0 cell viability assay; type: cell-based, human; conditions: for EC50: Homo sapiens, HCT-116, 48 h
Method: CellTiter-Glo 2.0 Reagent (Promega UK Ltd, G9242) was equilibrated to room temperature and added to the wells in a ratio of 1 volume reagent:5 volumes medium. Background luminescence was determined using medium alone plus reagent. The plates were shaken on an orbital shaker for 2 min to induce cell lysis and then incubated in the dark at room temperature for 10 min to stabilize the luminescent signal. Luminescence was captured on a CLARIOstar plate reader (BMG Labtech Ltd, UK) at 22 °C to give relative luminescence units and analyzed using BMG Labtech software. EC50 values were calculated by nonlinear regression (Hill plot) and log (inhibitor) versus response—variable slopes (four parameters) using GraphPad Prism 9 software. Each compound dose response was repeated as four independent biological replicates (n = 4).

Solubility observations = type: physicochemical; conditions: aqueous
HDAC1 = HDAC1 (Homo sapiens, UniProt Q13547); assay: HDAC1 degradation by quantitative western blotting in HCT116 cells; conditions: HCT116 cells, 24 h, 0.1, 1 and 10 μM; compared with 1 at 10 μM
HDAC1, sequence (Q13547 whole entry): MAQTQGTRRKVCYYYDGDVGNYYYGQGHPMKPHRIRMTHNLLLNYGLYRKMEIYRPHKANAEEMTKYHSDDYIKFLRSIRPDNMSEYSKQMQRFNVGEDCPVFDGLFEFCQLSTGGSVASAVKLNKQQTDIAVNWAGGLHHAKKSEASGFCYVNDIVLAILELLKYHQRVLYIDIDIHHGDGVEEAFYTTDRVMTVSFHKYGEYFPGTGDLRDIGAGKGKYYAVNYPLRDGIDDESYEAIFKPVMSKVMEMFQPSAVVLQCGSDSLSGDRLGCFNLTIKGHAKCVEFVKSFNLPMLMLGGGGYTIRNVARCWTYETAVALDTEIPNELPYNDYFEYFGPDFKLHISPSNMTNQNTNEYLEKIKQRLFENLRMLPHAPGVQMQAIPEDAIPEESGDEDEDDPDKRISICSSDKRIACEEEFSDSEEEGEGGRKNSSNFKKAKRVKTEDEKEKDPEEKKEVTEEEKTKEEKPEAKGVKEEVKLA
Method: (§3) Initially, each PROTAC was tested at 0.1, 1, and 10 μM in HCT116 cells for 24 h; then, cell extracts were prepared and evaluated for HDAC1/2 and 3 degradation by quantitative western blotting.
(§4) This cell line was incubated at 37 °C with 5% CO2.
(§5) HCT116 cells were seeded into 6-well plates (4 × 10^5 cells/well for 24 h, 2 × 10^5 cells/well for 48 h) for 24 h and then treated with DMSO or compounds at the indicated concentrations in fresh medium (5 mL total). After desired treatment time, the cells were harvested and then lysed in lysis buffer (50 mM Tris-HCl, 150 mM NaCl, 0.5% NP-40, 0.5% Triton X-100) supplemented with a protease inhibitor (Sigma, P8340). The suspension was incubated on ice for 30 min and centrifuged (18,000 rcf, 15 min, 4 °C); then, the supernatant was collected, and protein concentrations were quantified via Bradford Assay using Protein Assay Dye Reagent Concentrate (BIO-RAD). […] PageRuler Plus Prestained Ladder was used for size standards. After gel electrophoresis at 140 V for 90 min, the separated proteins were transferred onto a nitrocellulose membrane at 30 V for 60 min. The membranes were probed with primary antibodies (see the Supporting Information) for 60−90 min. Blots were developed with complimentary IRDye-conjugated secondary antibodies, and the bands were visualized using an Odyssey infrared imaging system. Image processing and band intensity quantification were performed using Image Studio Lite.

H3K56ac = assay: Histone H3 Lys 56 acetylation (H3K56ac) western blotting; type: cell-based, human; conditions: HCT116 cells, 24 h, screen at 0.1, 1, 10 μM; relative to DMSO, CI-994 and 1 at 10 μM
Source text: as §1, §2

HDAC2 = HDAC2 (Homo sapiens, UniProt Q92769); assay: HDAC2 degradation by quantitative western blotting in HCT116 cells; conditions: for HDAC2 degradation in initial screen (in words): HCT116 cells, 24 h, 0.1, 1 and 10 μM, compared with 1 at 10 μM
HDAC2, sequence (Q92769 whole entry): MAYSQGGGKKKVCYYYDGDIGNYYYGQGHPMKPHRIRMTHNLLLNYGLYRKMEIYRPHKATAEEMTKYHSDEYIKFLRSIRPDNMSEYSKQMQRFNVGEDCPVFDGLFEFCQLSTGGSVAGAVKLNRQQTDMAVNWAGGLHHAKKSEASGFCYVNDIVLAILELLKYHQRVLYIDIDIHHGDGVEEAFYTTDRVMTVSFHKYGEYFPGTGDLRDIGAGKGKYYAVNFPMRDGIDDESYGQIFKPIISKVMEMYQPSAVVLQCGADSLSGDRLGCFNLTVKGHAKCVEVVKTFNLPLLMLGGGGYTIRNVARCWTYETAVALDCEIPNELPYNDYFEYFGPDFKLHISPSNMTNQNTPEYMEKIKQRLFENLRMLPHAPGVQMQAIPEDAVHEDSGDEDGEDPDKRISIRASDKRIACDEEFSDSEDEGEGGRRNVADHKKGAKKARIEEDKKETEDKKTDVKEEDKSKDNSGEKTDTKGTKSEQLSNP
Method: as §3, §4, §5

HCT116 cells [2] = assay: Apoptosis flow cytometry assay (sub-G1 population); type: cell-based, human; conditions: 10 μM, after 24 h
Method: HCT116 cells were seeded (5 × 10^5 cells/plate) into 6 cm tissue culture plates for 24 h and then treated with 10 μM compounds (with 0.1% DMSO vehicle) or 0.1% DMSO control in fresh medium (5 mL total). The cells were then exposed to the compounds (10 μM) for 24 or 48 h. To harvest the cells, the medium was transferred from each sample plate to 15 mL centrifuge tubes. Each well was washed with 1 mL of phosphate-buffered saline (PBS) and the PBS was transferred to the corresponding 15 mL centrifuge tube. The plates were trypsinized, 2 mL of medium was added, and the cells and medium were transferred to the corresponding 15 mL centrifuge tubes. The harvested cells were pelleted by centrifugation (200g, 5 min, 4 °C), washed with 1 mL PBS, and then pelleted again by centrifugation (200g, 5 min, 4 °C). The supernatant was discarded, and the pellets resuspended in 1 mL of 70% ethanol (ice-cold) to fix the cells. Samples were stored at 4 °C and analyzed within two weeks. PBS (1 mL) was added to each sample tube containing cells fixed in 70% ethanol. The cells were pelleted by centrifugation (200g, 5 min, 4 °C), and the PBS wash was repeated. The supernatant was discarded, and the pellet was resuspended in 50 μL of RNase A (1 μg/mL, Thermo Scientific, EN0531) and left at room temperature for 10 min to digest contaminating RNA. A total of 500 μL of PI stain (50 μg/mL, Invitrogen, P3566) was added to each tube, and the tubes were incubated in the dark, at room temperature, for 30 min. Results were acquired on a BD FACSCanto II flow cytometer and analyzed using BD FACSdiva software. Sub-G1 population was calculated as a percentage of total cell population. Two independent biological replicates were performed.

HDAC3 = HDAC3 (Homo sapiens, UniProt O15379); assay: HDAC3 degradation by quantitative western blotting in HCT116 cells; conditions: HCT116 cells, 24 h, 0.1, 1 and 10 μM; compared with 1 at 10 μM
HDAC3, sequence (O15379 whole entry): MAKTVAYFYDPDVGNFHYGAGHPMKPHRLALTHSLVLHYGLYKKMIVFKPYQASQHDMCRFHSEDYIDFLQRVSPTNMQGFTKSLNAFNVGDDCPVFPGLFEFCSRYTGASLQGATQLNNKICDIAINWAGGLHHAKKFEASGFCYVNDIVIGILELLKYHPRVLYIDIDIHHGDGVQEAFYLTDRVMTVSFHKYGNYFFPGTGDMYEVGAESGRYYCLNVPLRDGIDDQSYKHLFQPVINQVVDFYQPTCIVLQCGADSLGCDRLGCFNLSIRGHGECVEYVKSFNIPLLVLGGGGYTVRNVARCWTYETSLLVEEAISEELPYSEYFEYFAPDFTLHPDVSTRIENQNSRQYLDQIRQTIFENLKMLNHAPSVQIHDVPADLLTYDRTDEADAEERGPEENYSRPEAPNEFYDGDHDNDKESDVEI
HDAC3, sequence (Q9Y618 389-480 partner limits assumed): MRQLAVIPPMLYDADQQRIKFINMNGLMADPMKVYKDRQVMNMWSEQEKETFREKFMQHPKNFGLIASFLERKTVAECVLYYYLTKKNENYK
Method: as §3, §4, §5

SMILES	HDAC1 degradation in initial screen (in words) (HDAC1)	H3K56ac levels (in words) (H3K56ac)	HDAC2 degradation in initial screen (in words) (HDAC2)	other results
CC(=O)Nc1ccc(C(=O)Nc2ccccc2N)cc1 [CI-994, reference compound]	–	–	–	SIN3A levels (in words) (SIN3A; especially after 48 h): significantly reduced
Cc1ncsc1-c1ccc(CNC(=O)[C@@H]2C[C@@H](O)CN2C(=O)[C@@H](NC(=O)CCCCCCCCCCC(=O)Nc2ccc(C(=O)Nc3ccccc3N)cc2)C(C)(C)C)cc1 [Compound 1, N1-(4-((2-Aminophenyl)carbamoyl)phenyl)-N12-((S)-1-((2S,4R)-4-hydroxy-2-((4-(4-methylthiazol-5-yl)benzyl)carbamoyl)pyrrolidin-1-yl)-3,3-dimethyl-1-oxobutan-2-yl)dodecanediamide]	–	–	–	EC50 (HCT116 cells [1]; 48 h): 4.3 ± 0.5 µM
Cc1ncsc1-c1ccc(CNC(=O)[C@@H]2C[C@@H](O)CN2C(=O)[C@@H](NC(=O)CCCCCCCCCCCCC(=O)Nc2ccc(C(=O)Nc3ccccc3N)cc2)C(C)(C)C)cc1 [Compound 5, N1-(4-((2-Aminophenyl)carbamoyl)phenyl)-N14-((S)-1-((2S,4R)-4-hydroxy-2-((4-(4-methylthiazol-5-yl)benzyl)carbamoyl)-pyrrolidin-1-yl)-3,3-dimethyl-1-oxobutan-2-yl)tetradecanediamide]	comparable HDAC1 and HDAC2 degradation to the shorter linkers	only a modest increase in H3K56ac compared to the shorter linkers	comparable HDAC1 and HDAC2 degradation to the shorter linkers	Solubility (in words) (Solubility observations): solubility issues
Cc1ncsc1-c1ccc(CNC(=O)[C@@H]2C[C@@H](O)CN2C(=O)[C@@H](NC(=O)CCCCCCCCOCC(=O)Nc2ccc(C(=O)Nc3ccccc3N)cc2)C(C)(C)C)cc1 [Compound 7, (2S,4R)-1-((S)-2-(9-(2-((4-((2-Aminophenyl)carbamoyl)phenyl)-amino)-2-oxoethoxy)nonanamido)-3,3-dimethylbutanoyl)-4-hydroxy-N-(4-(4-methylthiazol-5-yl)benzyl)pyrrolidine-2-carboxamide]	–	increased H3K56ac to comparable or greater levels than CI-994 and 1	–	EC50 (HCT116 cells [1]): 7.3 ± 0.5 µM; SIN3A levels (abundance) (SIN3A; 10 μM, after 24 h): 50 % abundance; Percentage of cells in sub-G1 phase (in words) (HCT116 cells [2]): highest percentage of cells in the sub-G1 phase
Cc1ncsc1-c1ccc(CNC(=O)[C@@H]2C[C@@H](O)CN2C(=O)[C@@H](NC(=O)CCCN2CCN(CCCC(=O)Nc3ccc(C(=O)Nc4ccccc4N)cc3)CC2)C(C)(C)C)cc1 [Compound 13, (2S,4R)-1-((S)-2-(4-(4-(4-((4-((2-Aminophenyl)carbamoyl)-phenyl)amino)-4-oxobutyl)piperazin-1-yl)butanamido)-3,3-dimethylbutanoyl)-4-hydroxy-N-(4-(4-methylthiazol-5-yl)benzyl)-pyrrolidine-2-carboxamide]	almost complete loss of HDAC1/2 degradation	did not increase H3K56ac levels compared to the dimethyl sulfoxide (DMSO) control	almost complete loss of HDAC1/2 degradation	HDAC3 degradation in initial screen (in words) (HDAC3): generally compromised
Cc1ncsc1-c1ccc(CNC(=O)[C@@H]2C[C@@H](O)CN2C(=O)[C@@H](NC(=O)C2(F)CC2)C(C)(C)C)c(OCCCCCCCCCCCC(=O)Nc2ccc(C(=O)Nc3ccccc3N)cc2)c1 [Compound 22, (2S,4R)-N-(2-((12-((4-((2-Aminophenyl)carbamoyl)phenyl)-amino)-12-oxododecyl)oxy)-4-(4-methylthiazol-5-yl)benzyl)-1-((S)-2-(1-fluorocyclopropane-1-carboxamido)-3,3-dimethylbutanoyl)-4-hydroxypyrrolidine-2-carboxamide]	–	did not alter H3K56ac levels	reduction in HDAC1 and HDAC2 degradation compared to 1	Dmax (HDAC2; HCT-116, read-out: Dmax HDAC2): 18%; Effect on cell viability (in words) (HCT116 cells [1]; CellTiter-Glo and flow cytometry): little effects on cell viability
